pEC50, pIC50: −log10 of the molar value.
Legend:
[1] = tested on: phospho-AKT in RAJI cells; assay: PI3Kδ selective cellular assay, phospho-AKT in anti-IgM stimulated RAJI cells; type: cell-based; conditions: Homo sapiens; RAJI cell model
Excerpt: A compound's ability in selectively inhibiting PI3Kδ can be assessed using RAJI cells, i.e., B lymphocyte cells derived from lymphoma patients. Briefly, serum-starved RAJI cells are stimulated with anti-human IgM, thereby causing signaling through the B-cell receptors, as described in, for example, He et al., Leukemia Research (2009) 33: 798-802. B-cell receptor signaling is important for the activation, differentiation, and survival of B cells and certain B-cell derived cancers. Reduction of phospho-AKT is indicative of compounds that may inhibit B-cell proliferation and function in certain diseases. By monitoring the reduction of phospho-AKT in stimulated RAJI cells (using for example, phospho-AKT antibodies), a compound's potential efficacy in selectively inhibiting PI3Kδ can be assessed.
Certain compounds provided herein (e.g., Compounds 5, 38, 103, 105, 106, 107, 108, and 109) were tested in RAJI cell model using procedures as described above.

[2] = tested on: phospho-AKT in RAW 264.7 cells; assay: PI3Kγ selective cellular assay, phospho-AKT in C5a stimulated RAW 264.7 cells; type: cell-based; conditions: Mus musculus, RAW264.7, RAW 264.7 cell model
Excerpt: A compound's ability in selectively inhibiting PI3Kγ can be assessed using RAW264.7 macrophages. Briefly, serum-starved PAW264.7 cells are stimulated with a known GPCR agonist C5a. (See, e.g., Camps et al., Nature Medicine (2005) 11(9): 936-943). Cells can be treated with test compounds prior to, simultaneously with, or subsequent to the stimulation by C5a. RAW 264.7 cells respond to the complement component fragment C5a through activation of the C5a receptor, and the C5a receptor activates macrophages and induces cell migration. Test compounds' ability to inhibit C5a-mediated AKT phosphorylation is indicative of selective inhibition of PI3Kγ. Thus, by monitoring the reduction of phospho-AKT in stimulated RAW 264.7 cells (using for example, phospho-AKT antibodies), a compound's potential efficacy in selectively inhibiting PI3Kγ can be assessed.
Certain compounds provided herein (e.g., Compounds 5, 38, 103, 105, 106, 107, 108, and 109) were tested in RAW 264.7 cell model using procedures as described above.

PI3Kγ = molecular target: T1, PI3Kγ (Homo sapiens, UniProt P48736); assay: PI3 Kinase HTRF assay, PI3Kγ; type: biochemical; conditions: Between 1 μM and 10 μM; read-out: PI3K γ IC50
T1 construct: purchased Millipore Corporation 14-558-K
T1 sequence (P48736 whole entry): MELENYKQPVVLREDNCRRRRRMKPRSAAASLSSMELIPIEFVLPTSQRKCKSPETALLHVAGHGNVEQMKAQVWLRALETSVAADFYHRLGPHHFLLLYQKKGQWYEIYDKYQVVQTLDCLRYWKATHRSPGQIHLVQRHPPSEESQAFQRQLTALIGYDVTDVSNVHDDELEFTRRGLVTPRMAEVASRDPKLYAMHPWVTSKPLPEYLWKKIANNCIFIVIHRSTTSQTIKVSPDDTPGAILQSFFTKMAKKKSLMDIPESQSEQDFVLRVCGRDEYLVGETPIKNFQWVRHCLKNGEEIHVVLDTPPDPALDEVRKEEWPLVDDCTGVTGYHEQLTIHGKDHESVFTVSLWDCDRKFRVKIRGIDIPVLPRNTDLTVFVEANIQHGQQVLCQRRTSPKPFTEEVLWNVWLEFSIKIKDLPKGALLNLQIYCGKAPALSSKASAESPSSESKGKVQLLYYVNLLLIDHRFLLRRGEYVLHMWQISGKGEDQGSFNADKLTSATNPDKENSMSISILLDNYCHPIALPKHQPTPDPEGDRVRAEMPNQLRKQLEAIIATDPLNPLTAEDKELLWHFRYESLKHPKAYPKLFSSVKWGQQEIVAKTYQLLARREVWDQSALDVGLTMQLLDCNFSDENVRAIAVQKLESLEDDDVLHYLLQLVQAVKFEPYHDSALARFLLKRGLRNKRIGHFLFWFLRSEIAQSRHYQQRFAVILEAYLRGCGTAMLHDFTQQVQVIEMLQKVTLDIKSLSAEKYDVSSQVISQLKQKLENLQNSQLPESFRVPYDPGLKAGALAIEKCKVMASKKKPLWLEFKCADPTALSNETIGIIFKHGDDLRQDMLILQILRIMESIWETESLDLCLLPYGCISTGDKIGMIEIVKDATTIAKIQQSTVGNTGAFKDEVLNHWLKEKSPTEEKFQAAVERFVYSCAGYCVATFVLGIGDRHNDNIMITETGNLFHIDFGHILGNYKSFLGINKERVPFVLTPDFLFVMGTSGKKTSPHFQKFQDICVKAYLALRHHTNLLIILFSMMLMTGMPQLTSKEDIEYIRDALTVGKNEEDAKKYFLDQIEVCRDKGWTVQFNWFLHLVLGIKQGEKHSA
Excerpt: (§1) A PI3-Kinase HTRF® assay kit (cat No. 33-016) purchased from Millipore Corporation was used to screen compounds provided herein. This assay used specific, high affinity binding of the GRP1 pleckstrin homology (PH) domain to PIP3, the product of a Class 1A or 1B PI3 Kinase acting on its physiological substrate PIP2. During the detection phase of the assay, a complex was generated between the GST-tagged PH domain and biotinylated short chain PIP3. The biotinylated PIP3 and the GST-tagged PH domain recruited fluorophores (Streptavidin-Allophycocyanin and Europium-labeled anti-GST respectively) to form the fluorescence resonance energy transfer (FRET) architecture, generating a stable time-resolved FRET signal. The FRET complex was disrupted in a competitive manner by non-biotinylated PIP3, a product formed in the PI3 Kinase assay.
(§2) PI3 Kinase α, β, γ and δ activity was assayed using the PI3 Kinase HTRF® assay kit (catalogue No. 33-016) purchased from Millipore Corporation. Purified recombinant PI3Kα (catalogue No. 14-602-K), PI3Kβ (catalogue No. 14-603-K), PI3Kγ (catalogue No. 14-558-K) and PI3Kδ (catalogue No. 14-604-K) were obtained from Millipore Corporation. Purified recombinant PI3K enzyme was used to catalyze the phosphorylation of phosphatidylinositol 4,5-bisphosphate (PIP2 at 10 μM) to phosphatidylinositol 3,4,5-trisphosphate (PIP3) in the presence of 10 μM ATP. The assay was carried out in 384-well format and detected using a Perkin Elmer EnVision Xcite Multilabel Reader. Emission ratios were converted into percent inhibitions and imported into GraphPad Prism software. The concentration necessary to achieve inhibition of enzyme activity by 50% (IC50) was calculated using concentrations ranging from 20 μM to 0.1 nM (12-point curve). IC50 values were determined using a nonlinear regression model available in GraphPad Prism 5.

PI3Kα = molecular target: T2, PI3Kα (Homo sapiens, UniProt P42336); assay: PI3 Kinase HTRF assay, PI3Kα; type: biochemical; conditions: Between 1 μM and 10 μM; read-out: PI3K α IC50
T2 construct: purchased Millipore Corporation 14-602-K
T2 sequence (P42336 whole entry): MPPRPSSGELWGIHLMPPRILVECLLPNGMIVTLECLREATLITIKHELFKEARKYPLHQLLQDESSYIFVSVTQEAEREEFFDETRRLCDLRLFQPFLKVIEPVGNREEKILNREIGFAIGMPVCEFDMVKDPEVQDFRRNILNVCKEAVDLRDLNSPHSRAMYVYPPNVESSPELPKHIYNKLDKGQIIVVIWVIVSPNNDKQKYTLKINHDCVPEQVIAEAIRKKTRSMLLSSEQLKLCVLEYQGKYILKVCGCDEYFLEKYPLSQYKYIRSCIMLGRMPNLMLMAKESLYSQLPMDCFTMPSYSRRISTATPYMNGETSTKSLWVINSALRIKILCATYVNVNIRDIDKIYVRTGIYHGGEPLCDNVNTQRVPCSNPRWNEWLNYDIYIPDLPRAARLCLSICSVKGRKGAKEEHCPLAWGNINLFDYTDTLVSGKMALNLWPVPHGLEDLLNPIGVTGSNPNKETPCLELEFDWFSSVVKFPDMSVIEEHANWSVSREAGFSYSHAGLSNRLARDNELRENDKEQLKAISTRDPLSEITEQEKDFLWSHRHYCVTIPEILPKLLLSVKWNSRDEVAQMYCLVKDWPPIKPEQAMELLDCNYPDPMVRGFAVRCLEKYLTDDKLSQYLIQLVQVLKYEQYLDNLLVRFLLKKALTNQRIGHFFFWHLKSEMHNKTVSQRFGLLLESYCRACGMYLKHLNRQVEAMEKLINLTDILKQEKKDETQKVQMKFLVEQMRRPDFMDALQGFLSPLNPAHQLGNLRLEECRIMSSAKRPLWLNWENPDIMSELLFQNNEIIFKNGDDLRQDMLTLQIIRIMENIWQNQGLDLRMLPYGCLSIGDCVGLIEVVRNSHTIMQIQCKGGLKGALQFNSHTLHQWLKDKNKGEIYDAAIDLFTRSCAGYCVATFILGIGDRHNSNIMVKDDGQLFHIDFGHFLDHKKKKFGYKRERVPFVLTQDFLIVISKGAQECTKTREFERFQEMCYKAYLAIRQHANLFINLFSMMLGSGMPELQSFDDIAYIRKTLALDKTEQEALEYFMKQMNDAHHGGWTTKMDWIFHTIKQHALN
T2 sequence (P27986 whole entry partner): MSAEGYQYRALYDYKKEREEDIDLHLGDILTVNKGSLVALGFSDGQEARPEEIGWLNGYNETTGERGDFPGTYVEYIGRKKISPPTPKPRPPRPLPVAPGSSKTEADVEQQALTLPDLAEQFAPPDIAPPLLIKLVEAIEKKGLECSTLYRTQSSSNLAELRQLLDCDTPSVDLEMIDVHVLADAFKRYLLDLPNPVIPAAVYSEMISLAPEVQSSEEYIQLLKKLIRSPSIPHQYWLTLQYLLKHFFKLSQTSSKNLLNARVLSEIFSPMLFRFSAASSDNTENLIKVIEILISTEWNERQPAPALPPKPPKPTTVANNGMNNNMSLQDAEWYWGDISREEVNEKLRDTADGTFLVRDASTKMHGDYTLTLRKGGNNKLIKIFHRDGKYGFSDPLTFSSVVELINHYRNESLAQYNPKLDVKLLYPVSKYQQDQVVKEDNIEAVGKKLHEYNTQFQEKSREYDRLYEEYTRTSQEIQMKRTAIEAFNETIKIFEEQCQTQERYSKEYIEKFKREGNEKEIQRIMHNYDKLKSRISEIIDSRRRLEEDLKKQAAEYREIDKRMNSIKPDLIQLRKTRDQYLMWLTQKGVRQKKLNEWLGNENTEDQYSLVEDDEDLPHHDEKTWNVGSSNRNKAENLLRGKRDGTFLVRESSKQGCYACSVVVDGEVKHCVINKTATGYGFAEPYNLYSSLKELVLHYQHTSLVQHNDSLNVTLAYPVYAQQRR
Excerpt: as §1, §2

PI3Kβ = molecular target: T3, PI3Kβ (Homo sapiens, UniProt P42338); assay: PI3 Kinase HTRF assay, PI3Kβ; type: biochemical; conditions: Between 1 μM and 10 μM; read-out: PI3K β IC50
T3 construct: purchased Millipore Corporation 14-603-K
T3 sequence (P42338 whole entry): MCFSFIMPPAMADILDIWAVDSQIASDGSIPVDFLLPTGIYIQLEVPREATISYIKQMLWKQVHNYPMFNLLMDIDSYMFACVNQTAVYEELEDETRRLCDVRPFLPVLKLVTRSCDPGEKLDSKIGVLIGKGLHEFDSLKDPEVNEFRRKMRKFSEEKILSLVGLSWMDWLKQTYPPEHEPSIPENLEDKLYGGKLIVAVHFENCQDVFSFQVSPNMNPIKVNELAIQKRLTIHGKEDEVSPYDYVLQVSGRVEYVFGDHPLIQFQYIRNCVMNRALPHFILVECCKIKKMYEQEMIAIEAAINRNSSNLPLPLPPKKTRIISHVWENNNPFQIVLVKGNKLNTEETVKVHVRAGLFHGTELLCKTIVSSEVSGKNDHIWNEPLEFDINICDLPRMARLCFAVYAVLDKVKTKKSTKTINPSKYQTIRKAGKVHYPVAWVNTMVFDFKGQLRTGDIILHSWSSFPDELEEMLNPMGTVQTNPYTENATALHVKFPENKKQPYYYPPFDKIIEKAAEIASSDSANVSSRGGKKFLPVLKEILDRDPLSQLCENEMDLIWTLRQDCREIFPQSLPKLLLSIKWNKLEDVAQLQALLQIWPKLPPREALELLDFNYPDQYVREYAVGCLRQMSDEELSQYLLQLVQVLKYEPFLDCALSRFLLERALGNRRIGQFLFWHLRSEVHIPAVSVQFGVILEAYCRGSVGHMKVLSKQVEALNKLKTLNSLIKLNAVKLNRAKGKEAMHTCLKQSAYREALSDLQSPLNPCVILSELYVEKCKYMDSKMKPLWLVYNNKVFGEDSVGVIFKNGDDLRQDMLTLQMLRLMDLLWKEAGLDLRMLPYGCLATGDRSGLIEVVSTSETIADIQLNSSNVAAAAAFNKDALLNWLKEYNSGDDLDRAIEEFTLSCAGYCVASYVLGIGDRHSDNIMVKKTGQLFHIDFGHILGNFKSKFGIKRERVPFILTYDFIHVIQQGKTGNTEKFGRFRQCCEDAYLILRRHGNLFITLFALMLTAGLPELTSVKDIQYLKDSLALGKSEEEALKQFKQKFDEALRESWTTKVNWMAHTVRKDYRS
T3 sequence (P27986 2-724 partner limits assumed): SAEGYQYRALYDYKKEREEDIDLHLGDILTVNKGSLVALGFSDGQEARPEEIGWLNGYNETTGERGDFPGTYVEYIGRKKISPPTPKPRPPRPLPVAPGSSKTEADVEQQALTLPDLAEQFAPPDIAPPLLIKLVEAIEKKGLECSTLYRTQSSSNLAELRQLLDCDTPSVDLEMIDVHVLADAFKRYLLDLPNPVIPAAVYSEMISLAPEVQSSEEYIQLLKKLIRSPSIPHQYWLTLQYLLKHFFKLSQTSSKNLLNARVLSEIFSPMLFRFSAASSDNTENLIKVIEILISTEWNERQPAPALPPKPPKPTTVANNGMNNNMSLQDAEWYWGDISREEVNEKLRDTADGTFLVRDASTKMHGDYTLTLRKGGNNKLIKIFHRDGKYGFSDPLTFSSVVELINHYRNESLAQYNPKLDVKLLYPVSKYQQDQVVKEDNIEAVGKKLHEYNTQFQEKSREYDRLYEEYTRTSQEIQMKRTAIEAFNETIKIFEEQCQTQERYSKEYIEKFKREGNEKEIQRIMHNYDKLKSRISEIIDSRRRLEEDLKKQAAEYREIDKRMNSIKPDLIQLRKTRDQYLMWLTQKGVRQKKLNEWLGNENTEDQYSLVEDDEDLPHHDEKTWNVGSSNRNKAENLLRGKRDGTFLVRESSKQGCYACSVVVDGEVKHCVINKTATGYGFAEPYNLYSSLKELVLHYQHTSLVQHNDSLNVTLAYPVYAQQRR
Excerpt: as §1, §2

Balb/c splenic B cells = assay: B cell activation and proliferation assay (Alamar Blue); type: cell-based; conditions: Mus musculus
Method: The ability of one or more subject compounds to inhibit B cell activitation and proliferation is determined according to standard procedures known in the art. For example, an in vitro cellular proliferation assay is established that measures the metabolic activity of live cells. The assay is performed in a 96 well microtiter plate using Alamar Blue reduction. Balb/c splenic B cells are purified over a Ficoll-Paque™ PLUS gradient followed by magnetic cell separation using a MACS B cell Isolation Kit (Miletenyi). Cells are plated in 90 μl at 50,000 cells/well in B Cell Media (RPMI+10% FBS+Penn/Strep+50 μM bME+5 mM HEPES). A compound provided herein is diluted in B Cell Media and added in a 10 μl volume. Plates are incubated for 30 min at 37° C. and 5% CO2 (0.2% DMSO final concentration). A 50 μl B cell stimulation cocktail is then added containing either 10 μg/ml LPS or 5 μg/ml F(ab′)2 Donkey anti-mouse IgM plus 2 ng/ml recombinant mouse IL4 in B Cell Media. Plates are incubated for 72 hours at 37° C. and 5% CO2. A volume of 15 μL of Alamar Blue reagent is added to each well and plates are incubated for 5 hours at 37° C. and 5% CO2. Alamar Blue fluoresce is read at 560Ex/590Em, and IC50 or EC50 values are calculated using GraphPad Prism 5.

[3] = tested on: phospho-AKT in SKOV-3 cells; assay: PI3Kα selective cellular assay, phospho-AKT in SKOV-3 cells; type: cell-based; conditions: Homo sapiens, SK-OV-3; SKOV-3 cell model; range between 100 nM and 1 μM (bounds carry own units)
Excerpt: (§3) A compound's ability in selectively inhibiting PI3Kα can be assessed using SKOV-3 cells, i.e., human ovarian carcinoma cell line. Briefly, SKOV-3 cells, in which mutant PI3Kα is constitutively active, can be treated with test compounds. Test compounds' ability to inhibit AKT phosphorylation in SKOV-3 cells, therefore, is indicative of selective inhibition of PI3Kα. Thus, by monitoring the reduction of phospho-AKT in SKOV-3 cells (using for example, phospho-AKT antibodies), a compound's potential efficacy in selectively inhibiting PI3Kα can be assessed.
Certain compounds provided herein (e.g., Compounds 5, 38, 103, and 106) were tested in SKOV-3 cell model using procedures as described above.

[4] = tested on: phospho-AKT in 786-O cells; assay: PI3Kβ selective cellular assay, phospho-AKT in 786-O cells; type: cell-based; conditions: Homo sapiens, 786-0; 786-O cell model
Excerpt: as §3, with “PI3Kβ” for “PI3Kα”, “786-O” for “SKOV-3”, “kidney” for “ovarian”, “PI3Kβ” for “mutant PI3Kα”, “PI3Kβ.” for “PI3Kα.”
Certain compounds provided herein (e.g., Compounds 5, 38, 103, and 106) were tested in 786-O cell model using procedures as described above.

[5] = range between 100 nM and 1 μM (bounds carry own units)

| SMILES | pIC50 (PI3Kα) | pIC50 (PI3Kβ) | pEC50 (Balb/c splenic B cells; Less than 100 nanoMolar) | other results |
| --- | --- | --- | --- | --- |
| CC(C)n1c([C@H](C)Nc2ncnc3scnc23)cc2cccc(-c3ccnnc3)c2c1=O [Compound 108] | – | – | – | pIC50 [1]: > 7.00; pIC50 [2]: 5.00 to 6.00 |
| C[C@H](Nc1ncnc2scc(-c3ccccc3)c12)c1cc2cccc(Cl)c2c(=O)n1-c1ccccc1 [Compound 98] | – | – | – | pIC50 (PI3Kγ): 5.00 to 6.00 |
| COc1ncc(-c2cccc3cc([C@H](C)Nc4ncnc5scnc45)n(-c4ccccc4)c(=O)c23)cc1C(F)(F)F [Compound 58] | 5.00 to 6.00 | 5.00 to 6.00 | > 7.00 | – |
| C[C@H](Nc1ncnc2scnc12)c1cc2cccc(/C=C/c3ccccc3)c2c(=O)n1-c1ccccc1 [Compound 49] | 5.00 to 6.00 | 5.00 to 6.00 | – | pEC50 (Balb/c splenic B cells; Between 100 nM and 1 μM): 6.00 to 7.00 |
| Cc1c(-c2cccc3cc([C@H](C)Nc4ncnc5scnc45)n(-c4ccccc4)c(=O)c23)cnn1C [Compound 43] | 5.00 to 6.00 | 5.00 to 6.00 | > 7.00 | – |
| COc1ncc(-c2cccc3cc([C@H](C)Nc4ncnc5scnc45)n(-c4ccccc4)c(=O)c23)cc1C [Compound 56] | 5.00 to 6.00 | 5.00 to 6.00 | > 7.00 | – |
| COc1ccc(-c2cccc3cc([C@H](C)Nc4ncnc5scnc45)n(-c4ccccc4)c(=O)c23)cc1 [Compound 44] | 5.00 to 6.00 | 5.00 to 6.00 | > 7.00 | – |
| C[C@H](Nc1ncnc2scnc12)c1cc2cccc(C(=O)N3CCOCC3)c2c(=O)n1-c1ccccc1 [Compound 86] | – | – | – | pIC50 (PI3Kγ): 5.00 to 6.00 |
| Cc1nsc2cc(C(C)Nc3ncnc4scnc34)n(-c3ccccc3)c(=O)c12 (stereo not drawn) [Compound 12] | – | 5.00 to 6.00 | > 7.00 | pIC50 (PI3Kγ): 5.00 to 6.00 |
| Cc1ncc(-c2cccc3cc([C@H](C)Nc4ncnc5scnc45)n(C4CC4)c(=O)c23)cn1 [Compound 62] | 5.00 to 6.00 | 5.00 to 6.00 | > 7.00 | – |
| CCCCc1cccc2cc([C@H](C)Nc3ncnc4scnc34)n(-c3ccccc3)c(=O)c12 [Compound 96] | 5.00 to 6.00 | 5.00 to 6.00 | > 7.00 | – |
| C[C@H](Nc1ncnc2scnc12)c1cc2cccc(-c3cnc(OCc4ccccc4)nc3)c2c(=O)n1-c1ccccc1 [Compound 53] | 5.00 to 6.00 | 5.00 to 6.00 | > 7.00 | – |
| Cc1ccc(-c2cccc3cc([C@H](C)Nc4ncnc5scnc45)n(-c4ccccc4)c(=O)c23)cn1 [Compound 6] | 5.00 to 6.00 | 5.00 to 6.00 | > 7.00 | – |
| Cc1sc2ncnc(N[C@@H](C)c3cc4cccc(Cl)c4c(=O)n3-c3ccccc3)c2c1C [Compound 97] | – | – | – | pIC50 (PI3Kγ): 5.00 to 6.00; pEC50 (Balb/c splenic B cells; Between 1 μM and 10 μM): 5.00 to 6.00 |
| C[C@H](Nc1ncnc2scnc12)c1cc2cccc(Cl)c2c(=O)n1C [Compound 81] | 5.00 to 6.00 | – | > 7.00 | – |
| C[C@H](Nc1ncnc2scnc12)c1cc2cccc(C=O)c2c(=O)n1-c1ccccc1 [Compound 83] | 5.00 to 6.00 | – | > 7.00 | – |
| C[C@H](Nc1ncnc2scnc12)c1cc2cccc(-c3ccnnc3)c2c(=O)n1-c1ccccc1 [Compound 92] | 5.00 to 6.00 | – | > 7.00 | – |
| C[C@H](Nc1ncnc2scnc12)c1cc2cccc(-c3cnn(C)c3)c2c(=O)n1C [Compound 82] | 5.00 to 6.00 | 5.00 to 6.00 | – | pIC50 (PI3Kγ): 5.00 to 6.00; pEC50 (Balb/c splenic B cells; Between 100 nM and 1 μM): 6.00 to 7.00 |
| C[C@H](Nc1ncnc2scnc12)c1cc2cccc(-c3cnn(C)c3)c2c(=O)n1-c1ccccc1 [Compound 5] | – | 5.00 to 6.00 | > 7.00 | pIC50 [1]: > 7.00; pIC50 [2]: > 7.00; pIC50 [3]: 6.00 to 7.00; pIC50 [4]: 5.00 to 6.00 |
| COc1ncc(-c2cccc3cc([C@H](C)Nc4ccnc5scnc45)n(-c4ccccc4)c(=O)c23)cn1 [Compound 89] | 5.00 to 6.00 | – | > 7.00 | – |
| Cc1ncc(-c2cccc3cc([C@H](C)Nc4ncnc5scnc45)n(-c4ccon4)c(=O)c23)cn1 [Compound 107] | – | – | – | pIC50 [1]: > 7.00; pIC50 [2, 5]: 6.00 to 7.00 |
| C[C@H](Nc1ncnc2scnc12)c1cc2cccc(-c3cnn(C)c3)c2c(=O)n1-c1cccc(F)c1 [Compound 10] | 5.00 to 6.00 | 5.00 to 6.00 | > 7.00 | – |
| C[C@H](Nc1ncnc2scnc12)c1cc2cccc(-c3cncc(N)c3)c2c(=O)n1-c1ccccc1 [Compound 109] | 5.00 to 6.00 | – | – | pIC50 [1]: > 7.00; pIC50 [2, 5]: 6.00 to 7.00 |
| Cc1cccc2cc([C@H](C)Nc3ncnc4scnc34)n(-c3cccc(F)c3)c(=O)c12 [Compound 100] | 5.00 to 6.00 | – | > 7.00 | – |
| COc1ncc(-c2cccc3cc([C@H](C)Nc4ncnc5scnc45)n(C4CC4)c(=O)c23)cn1 [Compound 61] | 5.00 to 6.00 | 5.00 to 6.00 | > 7.00 | – |
| C[C@H](Nc1ncnc2scnc12)c1cc2cccc(Cl)c2c(=O)n1-c1ccon1 [Compound 105] | – | – | – | pIC50 [1]: > 7.00; pIC50 [2, 5]: 6.00 to 7.00 |
